Assay results taken from patent US6355799B1, “Substituted benzene compounds, process for their preparation, and herbicidal and defoliant compositions containing them” (ISK Americas Incorporated, priority 1997, dated 2002).

What was measured:
Format in all cases: in vivo
[1] = test system: redroot pigweed (Amaranthus retroflexus, AMARE); test: Pre-emerge test, greenhouse herbicide activity screening; settings: rated 14 days after application, 0 = no damage, 100 = complete death
How it was run: (§1)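 Herbicidal damage is scored 0 (none) to 100 (complete plant death) two weeks after a simulated field spray. Rates span 15–1000 g ai/ha, delivered in acetone at 187 l/ha. For post-emergence treatments, plants have 2–3 leaves and the spray carries 0.25% v/v non-ionic surfactant.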

[2] = test system: upland rice (Oryza sp., var. Tebonnet, RICE); test: Post-emerge test, crop safety; settings: post-emerge, 14 days after application, rating scale 0-100
How it was run: as §1

[3] = test system: field corn (Zea mays L., var. Dekalb 535, CORN); test: Post-emerge test, crop safety; settings: post-emerge, 14 days after application, rating scale 0-100
How it was run: as §1

[4] = test system: velvetleaf (Abutilon theophrasti, ABUTH); test: Pre-emerge test, greenhouse herbicide activity screening; settings: rated 14 days after application, 0 = no damage, 100 = complete death
How it was run: as §1

[5] = test system: barnyardgrass (Echinochloa crus-galli, ECHCG); test: as above; settings: rated 14 days after application, 0 = no damage, 100 = complete death
How it was run: as §1

[6] = test system: lambsquarters (Chenopodium album, CHEAL); test: as above; settings: rated 14 days after application, 0 = no damage, 100 = complete death
How it was run: as §1

[7] = test system: ivyleaf morningglory (Ipomoea hederacea, IPOHE); test: as above; settings: rated 14 days after application, 0 = no damage, 100 = complete death
How it was run: as §1

[8] = test system: sicklepod (Cassia obtusifolia, CASOB); test: as above; settings: rated 14 days after application, 0 = no damage, 100 = complete death
How it was run: as §1

[9] = test system: green foxtail (Setaria viridis, SETVI); test: as above; settings: rated 14 days after application, 0 = no damage, 100 = complete death
How it was run: as §1

[10] = test system: johnsongrass (Sorghum halepense, SORHA); test: as above; settings: rated 14 days after application, 0 = no damage, 100 = complete death
How it was run: as §1

[11] = test system: large crabgrass (Digitaria sanguinalis, DIGSA); test: as above; settings: rated 14 days after application, 0 = no damage, 100 = complete death
How it was run: as §1

[12] = test system: upland rice (Oryza sp., var. Tebonnet, RICE); test: Pre-emerge test, crop safety; settings: rated 14 days after application, 0 = no damage, 100 = complete death
How it was run: (§2)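 Sandy loam pots; pre-emerge: sown 1 d pre-spray, surface-watered after, then bottom-watered. Post-emerge: sown 8–21 d before, 2–3 leaf stage, + 0.25% v/v NIS, bottom-watered. Acetone, 187 l/ha track spray, 15–1000 g ai/ha. 0–100 injury score, day 14.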

[13] = test system: field corn (Zea mays L., var. Dekalb 535, CORN); test: Pre-emerge test, crop safety; settings: rated 14 days after application, 0 = no damage, 100 = complete death
How it was run: as §2

[14] = test system: velvetleaf (Abutilon theophrasti, ABUTH); test: Post-emerge test, greenhouse herbicide activity screening; settings: post-emerge, 14 days after application, rating scale 0-100
How it was run: (§3)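 Fourteen days after spraying, crop and weed injury was graded visually from 0, no effect, to 100, every plant dead. Test substances were dissolved in acetone and applied at 15–1000 g ai/ha with a flat-fan nozzle. Application was either pre-emergence, one day after sowing, or post-emergence at the 2–3 leaf stage.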

[15] = test system: barnyardgrass (Echinochloa crus-galli, ECHCG); test: as above; settings: post-emerge, 14 days after application, rating scale 0-100
How it was run: as §3

[16] = test system: redroot pigweed (Amaranthus retroflexus, AMARE); test: as above; settings: post-emerge, 14 days after application, rating scale 0-100
How it was run: as §3

[17] = test system: lambsquarters (Chenopodium album, CHEAL); test: as above; settings: post-emerge, 14 days after application, rating scale 0-100
How it was run: as §3

[18] = test system: ivyleaf morningglory (Ipomoea hederacea, IPOHE); test: as above; settings: post-emerge, 14 days after application, rating scale 0-100
How it was run: as §3

[19] = test system: sicklepod (Cassia obtusifolia, CASOB); test: as above; settings: post-emerge, 14 days after application, rating scale 0-100
How it was run: as §3

[20] = test system: green foxtail (Setaria viridis, SETVI); test: as above; settings: post-emerge, 14 days after application, rating scale 0-100
How it was run: as §3

[21] = test system: johnsongrass (Sorghum halepense, SORHA); test: as above; settings: post-emerge, 14 days after application, rating scale 0-100
How it was run: as §3

[22] = test system: large crabgrass (Digitaria sanguinalis, DIGSA); test: as above; settings: post-emerge, 14 days after application, rating scale 0-100
How it was run: as §3

SMILES: COc1c(Cl)cc(F)c(-n2c(=O)cc(C(F)(F)F)n(C)c2=O)c1NC(=O)C(C)=Cc1ccccc1 [2-81]
- Pre-emerge Herbicidal Activity, phytotoxicity rating (0-100), AMARE ([1]; 63 g ai/ha): 100
- Pre-emerge Herbicidal Activity, phytotoxicity rating (0-100), AMARE ([1]; 250 g ai/ha): 100
- phytotoxicity rating RICE ([2]; 63 g ai/ha): 60
- phytotoxicity rating RICE ([2]; 250 g ai/ha): 90
- phytotoxicity rating CORN ([3]; 63 g ai/ha): 30
- phytotoxicity rating CORN ([3]; 250 g ai/ha): 90
- Pre-emerge Herbicidal Activity, phytotoxicity rating (0-100), ABUTH ([4]; 63 g ai/ha): 100
- Pre-emerge Herbicidal Activity, phytotoxicity rating (0-100), ABUTH ([4]; 250 g ai/ha): 100
- Pre-emerge Herbicidal Activity, phytotoxicity rating (0-100), ECHCG ([5]; 63 g ai/ha): 70
- Pre-emerge Herbicidal Activity, phytotoxicity rating (0-100), ECHCG ([5]; 250 g ai/ha): 100
- Pre-emerge Herbicidal Activity, phytotoxicity rating (0-100), CHEAL ([6]; 63 g ai/ha): 100
- Pre-emerge Herbicidal Activity, phytotoxicity rating (0-100), CHEAL ([6]; 250 g ai/ha): 100
- Pre-emerge Herbicidal Activity, phytotoxicity rating (0-100), IPOHE ([7]; 63 g ai/ha): 60
- Pre-emerge Herbicidal Activity, phytotoxicity rating (0-100), IPOHE ([7]; 250 g ai/ha): 100
- Pre-emerge Herbicidal Activity, phytotoxicity rating (0-100), CASOB ([8]; 63 g ai/ha): 90
- Pre-emerge Herbicidal Activity, phytotoxicity rating (0-100), CASOB ([8]; 250 g ai/ha): 100
- Pre-emerge Herbicidal Activity, phytotoxicity rating (0-100), SETVI ([9]; 63 g ai/ha): 100
- Pre-emerge Herbicidal Activity, phytotoxicity rating (0-100), SETVI ([9]; 250 g ai/ha): 100
- Pre-emerge Herbicidal Activity, phytotoxicity rating (0-100), SORHA ([10]; 63 g ai/ha): 90
- Pre-emerge Herbicidal Activity, phytotoxicity rating (0-100), SORHA ([10]; 250 g ai/ha): 90
- Pre-emerge Herbicidal Activity, phytotoxicity rating (0-100), DIGSA ([11]; 63 g ai/ha): 100
- Pre-emerge Herbicidal Activity, phytotoxicity rating (0-100), DIGSA ([11]; 250 g ai/ha): 100
- Pre-emerge phytotoxicity rating (0-100), crop damage, RICE ([12]; 63 g ai/ha): 70
- Pre-emerge phytotoxicity rating (0-100), crop damage, RICE ([12]; 250 g ai/ha): 90
- Pre-emerge phytotoxicity rating (0-100), crop damage, CORN ([13]; 63 g ai/ha): 0
- Pre-emerge phytotoxicity rating (0-100), crop damage, CORN ([13]; 250 g ai/ha): 90
- phytotoxicity rating ABUTH ([14]; 63 g ai/ha): 100
- phytotoxicity rating ABUTH ([14]; 250 g ai/ha): 100
- phytotoxicity rating ECHCG ([15]; 63 g ai/ha): 50
- phytotoxicity rating ECHCG ([15]; 250 g ai/ha): 90
- phytotoxicity rating AMARE ([16]; 63 g ai/ha): 100
- phytotoxicity rating AMARE ([16]; 250 g ai/ha): 100
- phytotoxicity rating CHEAL ([17]; 63 g ai/ha): 90
- phytotoxicity rating CHEAL ([17]; 250 g ai/ha): 100
- phytotoxicity rating IPOHE ([18]; 63 g ai/ha): 100
- phytotoxicity rating IPOHE ([18]; 250 g ai/ha): 100
- phytotoxicity rating CASOB ([19]; 63 g ai/ha): 70
- phytotoxicity rating CASOB ([19]; 250 g ai/ha): 100
- phytotoxicity rating SETVI ([20]; 63 g ai/ha): 40
- phytotoxicity rating SETVI ([20]; 250 g ai/ha): 60
- phytotoxicity rating SORHA ([21]; 63 g ai/ha): 20
- phytotoxicity rating SORHA ([21]; 250 g ai/ha): 80
- phytotoxicity rating DIGSA ([22]; 63 g ai/ha): 20
- phytotoxicity rating DIGSA ([22]; 250 g ai/ha): 80
